Experimental data taken from patent US8580829B2 (Boehringer Ingelheim International GmbH, priority 2010, dated 2013).
Where two headings read alike, the source gives them in different places.

Key:
[1] = biological target: T1, recombinant human FLAP protein (Homo sapiens, UniProt P20292); assay: FLAP binding assay (Scintillation Proximity Assay, displacement of [125I]L-691,831); details: recombinant human FLAP membranes, [125I]L-691,831 probe; read-out: FLAP SPA IC50
T1 construct: made in house; host or cells: Sf9 insect cells (100,000 x g membrane fraction)
T1 sequence (P20292 1-161): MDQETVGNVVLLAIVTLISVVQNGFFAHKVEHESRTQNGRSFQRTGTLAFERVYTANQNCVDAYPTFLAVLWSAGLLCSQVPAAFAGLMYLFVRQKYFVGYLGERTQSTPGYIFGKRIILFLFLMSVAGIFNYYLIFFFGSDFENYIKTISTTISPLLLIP
Procedure, shortened: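 WGA scintillation proximity beads were stirred 1 h with 5 μg of FLAP-containing membrane protein. The membranes came from baculovirus Sf9 cells, Dounce-lysed and spun to a 100,000×g pellet in buffer at pH 7.5.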

[2] = test system: synthesis of LTB4 in human whole blood; assay: human whole blood LTB4 production inhibition assay; assay type: cell-based; details: heparinized human whole blood, calcimycin 20 μM, read-out: hWB LTB4 IC50
Procedure, shortened: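 Whole-blood cellular format, heparinized human donors: 15 min compound pretreatment, then 30 min calcimycin stimulation (20 μM final), both at 37° C. Low-speed centrifugation yields plasma, in which LTB4 is read by homogeneous time-resolved fluorescence immunoassay.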

Row | IC50 [1] | IC50 ([2]; Homo sapiens) | IC50 [2] | Structure (SMILES)
1 | 14 nM | 360 nM |  | Cn1cc(-c2nc(C3(c4ccc(-c5cnc(N)nc5)cc4)CC(F)(F)C3)no2)cn1 [Example 122, 5-(4-{3,3-Difluoro-1-[5-(1-methyl-1H-pyrazol-4-yl)-1,2,4-oxadiazol-3-yl]-cyclobutyl}-phenyl)-pyrimidin-2-ylamine]
2 | 35 nM | 1500 nM |  | Cn1cc(-c2nc(C3(c4ccc(-c5cnc(N)nc5)cc4)CC(C)(C)C3)no2)cn1 [Example 123, 5-(4-{3,3-Dimethyl-1-[5-(1-methyl-1H-pyrazol-4-yl)-1,2,4-oxadiazol-3-yl]-cyclobutyl}-phenyl)-pyrimidin-2-ylamine]
3 | 3.5 nM |  | > 5000 nM | Nc1ncc(-c2ccc(C3(c4noc(-c5cnc(N6CCNCC6)cn5)n4)CCC3)cc2)cn1 [Example 124, 5-(4-{1-[5-(3,4,5,6-Tetrahydro-1H-1,2′-bipyrazinyl-5′-yl)-1,2,4-oxadiazol-3-yl]-cyclobutyl}-phenyl)-pyrimidin-2-ylamine]
4 | 5 nM |  | > 5000 nM | COC(=O)[C@H]1CN(c2cnc(-c3nc(C4(c5ccc(-c6cnc(N)nc6)cc5)CCC4)no3)cn2)CCN1 [Example 125, (R)-5′-(3-{1-[4-(2-Amino-pyrimidin-5-yl)-phenyl]-cyclobutyl}-1,2,4-oxadiazol-5-yl)-3,4,5,6-tetrahydro-2H-1,2′-bipyrazinyl-3-carboxylic acid methyl ester]
5 | 5.7 nM |  | > 5000 nM | COC(=O)[C@@H]1CN(c2cnc(-c3nc(C4(c5ccc(-c6cnc(N)nc6)cc5)CCC4)no3)cn2)CCN1 [Example 126, (S)-5′-(3-{1-[4-(2-Amino-pyrimidin-5-yl)-phenyl]-cyclobutyl}-1,2,4-oxadiazol-5-yl)-3,4,5,6-tetrahydro-2H-1,2′-bipyrazinyl-3-carboxylic acid methyl ester]
6 | 3.2 nM | 120 nM |  | Nc1ncc(-c2ccc(C3(c4noc(-c5cnn(CC(=O)N6CCCCC6)c5)n4)CCC3)cc2)cn1 [Example 127, 2-[4-(3-{1-[4-(2-Amino-pyrimidin-5-yl)-phenyl]-cyclobutyl}-1,2,4-oxadiazol-5-yl)-pyrazol-1-yl]-1-piperidin-1-yl-ethanone]
7 | 6.7 nM | 180 nM |  | CN(C)C(=O)C(C)(C)n1cc(-c2nc(C3(c4ccc(-c5cnc(N)nc5)cc4)CCC3)no2)cn1 [Example 128, 2-[4-(3-{1-[4-(2-amino-pyrimidin-5-yl)-phenyl]-cyclobutyl}-1,2,4-oxadiazol-5-yl)-pyrazol-1-yl]-N,N-dimethyl-isobutyramide]
8 | 3.9 nM | 140 nM |  | CN(C)C(=O)C(C)(C)Cn1cc(-c2nc(C3(c4ccc(-c5cnc(N)nc5)cc4)CCC3)no2)cn1 [Example 129, 3-[4-(3-{1-[4-(2-Amino-pyrimidin-5-yl)-phenyl]-cyclobutyl}-1,2,4-oxadiazol-5-yl)-pyrazol-1-yl]-2,2,N,N-tetramethyl-propionamide]
9 | 1.5 nM | 75 nM |  | CCNC(=O)Cn1cc(-c2nc(C3(c4ccc(-c5cnc(N)nc5)cc4)CCC3)no2)cn1 [Example 130, 2-[4-(3-{1-[4-(2-Amino-pyrimidin-5-yl)-phenyl]-cyclobutyl}-1,2,4-oxadiazol-5-yl)-pyrazol-1-yl]-N-ethyl-acetamide]
10 | 3.9 nM | 88 nM |  | CCN(CC)C(=O)Cn1cc(-c2nc(C3(c4ccc(-c5cnc(N)nc5)cc4)CCC3)no2)cn1 [Example 131, 2-[4-(3-{1-[4-(2-Amino-pyrimidin-5-yl)-phenyl]-cyclobutyl]-1,2,4-oxadiazol-5-yl)-pyrazol-1-yl]-N,N-diethyl-acetamide]
11 | 2.8 nM | 69 nM |  | Nc1ncc(-c2ccc(C3(c4noc(-c5cnn(CC(=O)NC6CC6)c5)n4)CCC3)cc2)cn1 [Example 132, 2-[4-(3-{1-[4-(2-Amino-pyrimidin-5-yl)-phenyl]-cyclobutyl}-1,2,4-oxadiazol-5-yl)-pyrazol-1-yl]-N-cyclopropyl-acetamide]
12 | 4.3 nM | 72 nM |  | CC(C(=O)N(C)C)n1cc(-c2nc(C3(c4ccc(-c5cnc(N)nc5)cc4)CCC3)no2)cn1 (centres unmarked) [Example 133, 2-[4-(3-{1-[4-(2-Amino-pyrimidin-5-yl)-phenyl]-cyclobutyl}-1,2,4-oxadiazol-5-yl)-pyrazol-1-yl]-N,N-dimethyl-propionamide]
13 | 5.8 nM | 120 nM |  | Nc1ncc(-c2ccc(C3(c4noc(-c5cnn(CC(=O)N6CCOCC6)c5)n4)CCC3)cc2)cn1 [Example 134, 2-[4-(3-{1-[4-(2-Amino-pyrimidin-5-yl)-phenyl]-cyclobutyl}-1,2,4-oxadiazol-5-yl)-pyrazol-1-yl]-1-morpholin-4-yl-ethanone]
14 | 10.4 nM | 190 nM |  | CN(C)S(=O)(=O)n1cc(-c2nc(C3(c4ccc(-c5cnc(N)nc5)cc4)CCC3)no2)cn1 [Example 135]
15 | 1.5 nM | 66 nM |  | CN(C)C(=O)n1cc(-c2nc(C3(c4ccc(-c5cnc(N)nc5)cc4)CCC3)no2)cn1 [Example 136, 4-(3-{1-[4-(2-Amino-pyrimidin-5-yl)-phenyl]-cyclobutyl}-1,2,4-oxadiazol-5-yl)-pyrazole-1-carboxylic acid dimethylamide]
16 | 7.7 nM | 170 nM |  | Nc1ncc(-c2ccc(C3(c4noc(-c5cnn(CC(=O)N6CCCC6)c5)n4)CCC3)cc2)cn1 [Example 137, 2-[4-(3-{1-[4-(2-Amino-pyrimidin-5-yl)-phenyl]-cyclobutyl}-1,2,4-oxadiazol-5-yl)-pyrazol-1-yl]-1-pyrrolidin-1-yl-ethanone]
17 | 2.8 nM | 38 nM |  | CCN(C)C(=O)Cn1cc(-c2nc(C3(c4ccc(-c5cnc(N)nc5)cc4)CCC3)no2)cn1 [Example 138, 2-[4-(3-{1-[4-(2-Amino-pyrimidin-5-yl)-phenyl]-cyclobutyl}-1,2,4-oxadiazol-5-yl)-pyrazol-1-yl]-N-ethyl-N-methyl-acetamide]
18 | 2.6 nM | 95 nM |  | CC(C)N(C)C(=O)Cn1cc(-c2nc(C3(c4ccc(-c5cnc(N)nc5)cc4)CCC3)no2)cn1 [Example 139, 2-[4-(3-{1-[4-(2-Amino-pyrimidin-5-yl)-phenyl]-cyclobutyl}-1,2,4-oxadiazol-5-yl)-pyrazol-1-yl]-N-isopropyl-N-methyl-acetamide]
19 | 4.4 nM | 68 nM |  | Nc1ncc(-c2ccc(C3(c4noc(-c5cnn(CC(=O)NCC(F)(F)F)c5)n4)CCC3)cc2)cn1 [Example 140, 2-[4-(3-{1-[4-(2-Amino-pyrimidin-5-yl)-phenyl]-cyclobutyl}-1,2,4-oxadiazol-5-yl)-pyrazol-yl]-N-(2,2,2-trifluoro-ethyl)-acetamide]
20 | 0.9 nM | 43 nM |  | CN(C(=O)Cn1cc(-c2nc(C3(c4ccc(-c5cnc(N)nc5)cc4)CCC3)no2)cn1)C1CC1 [Example 141, 2-[4-(3-{1-[4-(2-Amino-pyrimidin-5-yl)-phenyl]-cyclobutyl]-1,2,4-oxadiazol-5-yl)-pyrazol-1-yl]-N-cyclopropyl-N-methyl-acetamide]
21 | 2.2 nM | 250 nM |  | Nc1ncc(-c2ccc(C3(c4noc(-c5cccnc5)n4)CCC3)cc2)cn1 [Example 143, 5-{4-[1-(5-pyridin-3-yl-1,2,4-oxadiazol-3-yl)-cyclobutyl]-phenyl}-pyrimidin-2-ylamine]
22 | 1.4 nM | 470 nM |  | Nc1ncc(-c2ccc(C3(c4noc(-c5ccccc5)n4)CCC3)cc2)cn1 [Example 144, 5-{4-[1-(5-Phenyl-1,2,4-oxadiazol-3-yl)-cyclobutyl]-phenyl}-pyrimidin-2-ylamine]
23 | 78 nM | > 5000 nM |  | Nc1ncc(-c2ccc(C3(c4noc(-c5ccccn5)n4)CCOCC3)cc2)cn1 [Example 145, 5-{4-[4-(5-pyridin-2-yl-1,2,4-oxadiazol-3-yl)-tetrahydro-pyran-4-yl]-phenyl}-pyrimidin-2-ylamine]
24 | 27 nM | 840 nM |  | Nc1ncc(-c2ccc(C3(c4noc(-c5cccnc5)n4)CCOCC3)cc2)cn1 [Example 146, 5-{4-[4-(5-Pyridin-3-yl-1,2,4-oxadiazol-3-yl)-tetrahydro-pyran-4-yl]-phenyl}-pyrimidin-2-ylamine]
25 | 33 nM | 1700 nM |  | Nc1ncc(-c2ccc(C3(c4noc(-c5ccncc5)n4)CCOCC3)cc2)cn1 [Example 147, 5-{4-[4-(5-Pyridin-4-yl-1,2,4-oxadiazol-3-yl)-tetrahydro-pyran-4-yl]-phenyl}-pyrimidin-2-ylamine]
26 | 46 nM | 3300 nM |  | Cc1cc(-c2nc(C3(c4ccc(-c5cnc(N)nc5)cc4)CCOCC3)no2)n(C)n1 [Example 148, 5-(4-{4-[5-(2,5-Dimethyl-2H-pyrazol-3-yl)-1,2,4-oxadiazol-3-yl]-tetrahydro-pyran-4-yl}-phenyl)-pyrimidin-2-ylamine]
27 | 15 nM | > 5000 nM |  | Nc1ncc(-c2ccc(C3(c4noc(-c5ccccc5)n4)CCOCC3)cc2)cn1 [Example 149, 5-{4-[4-(5-Phenyl-1,2,4-oxadiazol-3-yl)-tetrahydro-pyran-yl]-phenyl}-pyrimidin-2-ylamine]
28 | 180 nM | > 5000 nM |  | Nc1ncc(-c2ccc(C3(c4noc(Cc5ccccc5)n4)CCOCC3)cc2)cn1 [Example 150, 5-{4-[4-(5-Benzyl-1,2,4-oxadiazol-3-yl)-tetrahydro-pyran-4-yl]-phenyl}-pyrimidin-2-ylamine]
